Data on five compounds can be found in patent publication US5183893A, “1-azabicycloalkane derivatives, their preparation process and their use as medicaments” (Roussel Uclaf, priority 1988, dated 1993).

A short description of data set [1]: Acute toxicity (mortality during 7 days, oral). The conditions noted are these: mouse, in vivo, male CD1 mice, fasted 16 hours, mortality noted during 7 days. How it is done:
The test is carried out on male mice (CD1 Charles Rivers) weighing 22 to 24 g, which have gone without food for 16 hours. The products are administered by oral route at a dose of 1000, 500, 250, 125, 62, 31 and 16 mg/kg. The mortality is noted during the 7 days following the treatment.

The test system of data set [2] is isolated ileum of a guinea-pig. The data set is described as follows: Test on the isolated ileum of a guinea-pig (agonist activity). Format: cell-based. The conditions noted are these: Cavia porcellus, read-out: pD2 (negative logarithm of the dose which produces 50% of the maximum effect) (converted). How it is done:
Pieces of ileum are removed from guinea-pigs which have been killed by decapitation. The isolated ileum is placed in 10 cm^3 of Tyrode's solution at 37° C. and aerated by a mixture of oxygen (95%) and carbon dioxide (5%). The contractions due to the products are recorded using a sensor connected to a polygraph. The products being tested are added, in concentrations comprised between 1.10^-3 M and 1.10^-8 M/1.
The products presenting a contracting effect are tested vis-a-vis atropine and hexamethonium to establish if the activity is of "muscarinic" or "nicotinic" type.
The agonist activity is expressed in pD2 (negative logarithm of the dose which produces 50% of the maximum effect).

A short description of data set [3]: Diarrheic activity. Further details: species or system mice. The conditions noted are these: mouse, in vivo. How it is done: The test is carried out on male mice (CD1 Charles Rivers) weighing 25 to 30 g, and without food for 6 hours. The product, dissolved at 5% in methocel, is administered by oral route, using an oesophagus probe.
Control animals receive only the excipient (20 ml/kg).
After treatment, the animals are put separately into cages, the bottom of which is covered with absorbent paper, and are observed for 30, 60, 120 and 180 minutes.
The absorbent sheets of paper are changed after each observation.
The consistency of the faeces is evaluated according to the Randall and Baruth method (Arch. Int. Pharmacodyn., 220, 94, 1976) in accordance with the following scale of values.
1: slightly soft faeces with or without a damp ring,
2: slightly soft faeces with presence of a well-defined damp ring,
3: soft faeces with presence of a large damp ring,
4: faeces without consistency with presence of a very large camp ring.
For each product, the dose has been noted which cause diarrohea in 50% of the animals according to the Miller and Tainter method (Proc. Soc. Exp. Biol. Med., 57, 261, 1944).

Data set [4] concerns male mice (CD1 Charles Rivers). The data set is described as follows: Hypothermic activity. Format: in vivo. The conditions noted are these: for ED (-1 C body temperature): Mus musculus, read-out: Effective dose (-1° C.). How it is done:
The test is carried out on male mice (CD1 Charles Rivers) weighing 25 to 30 g, and without food for 6 hours.
The body temperature is noted using a thermocouple placed in the rectum to about 1.5 cm and connected to an electrical temperature recorder. […]
The degree of hypothermia is evaluated as the difference between the treated animals and the control animals and the dose necessary to reduce the body temperature by 1° C. is determined.
The duration of action of the products is determined by using doses capable of reducing the temperature by 1° to 1.2° C.

[5] abbreviates: isolated guinea-pig ileum, contraction, Tyrode's solution at 37° C.
The mark [6] stands for this setting: sc, sub-cutaneous route, dose necessary to reduce body temperature by 1° C.
Where [7] appears, read: oral route, dose necessary to reduce body temperature by 1° C.

Counter-ions that a name gives are not always drawn. Like-named read-outs stand apart in the source and are kept apart here.

In the case of `CC(=O)OC1CN2CCC1CC2` (stereo not shown) [Aceclidine, HCl], in data set [1], the LD50 at 168 h worked out at 250 mg/kg. For the same compound, the EC50 in data set [2] was 105 nM. The 50% effective dose (ED50) at 3 h in data set [3] (male CD1 mice, fasted 6 hours, oral, observed up to 180 minutes, read-out: ED50 (dose which causes diarrhoea in 50% of the animals)) was 4 mg/kg. Besides, the “duration of action: body temperature difference from controls” value is -1.0 °C in data set [4] (2.50 mg/kg sub-cutaneous, 30 min); -0.1 °C in data set [4] (2.50 mg/kg sub-cutaneous, 60 min); “+0.1 °C” in data set [4] (2.50 mg/kg sub-cutaneous, 120 min); “+0.1 °C” in data set [4] (2.50 mg/kg sub-cutaneous, 180 min); -1.1 °C in data set [4] (7.50 mg/kg oral, 30 min); -0.3 °C in data set [4] (7.50 mg/kg oral, 60 min). Further, the “duration of action: body temperature difference from controls” value in data set [4] (7.50 mg/kg oral, 180 min) is “+0.1 °C”. Moreover, the ED (-1 C body temperature) in data set [4] (po) came to 6.4 mg/kg; in data set [4] (sc), 2.1 mg/kg.

On to `CON=CC1CN2CCC1CC2` (stereo not shown) [Example 1, 1-azabicyclo-[2,2,2]-octan-3-carboxaldehyde O-methyloxime], for which the median lethal dose (LD50) at 168 h in data set [1] came out at 30 mg/kg. In addition, in data set [2] (setting [5]), the EC50 was 50.1 nM. In data set [3] (po), this compound came in with a 50% effective dose (ED50) at 3 h of 1.1 mg/kg. Further, the “duration of action: body temperature difference from controls” value in data set [4] (0.25 mg/kg oral, 30 min) was -1.1 °C; in data set [4] (0.25 mg/kg oral, 60 min), -1.0 °C; in data set [4] (0.25 mg/kg sub-cutaneous, 30 min), -1.2 °C; in data set [4] (0.25 mg/kg sub-cutaneous, 60 min), -1.1 °C. For the same compound, the ED (-1 C body temperature) in data set [4] (setting [6]) turned out to be 0.18 mg/kg; in data set [4] (setting [7]), 0.19 mg/kg.

Consider `CCON=CC1CN2CCC1CC2` (stereo not shown) [Example 2, 1-azabicyclo-[2,2,2]-octan-3-carboxaldehyde O-ethyloxime], for which the LD50 at 168 h in data set [1] amounted to 150 mg/kg.

In data set [1], `C#CCON=CC1CN2CCC1CC2` (stereo not shown) [Example 3, 1-azabicyclo-[2,2,2]-octan-3-carboxaldehyde O-2-propynyloxime] had an LD50 at 168 h of 40 mg/kg.

Take `CON=C(C)C1CN2CCC1CC2` (stereo not shown) [Example 4, (1-azabicyclo-[2,2,2]-octan-3-yl)-ethanone O-methyloxime hydrochloride]: the 50% lethal dose (LD50) at 168 h in data set [1] turned out to be 75 mg/kg. In addition, the EC50 in data set [2] (setting [5]) is 95.5 nM. In data set [3] (po), the 50% effective dose (ED50) at 3 h was determined as 3 mg/kg. For the same compound, the ED (-1 C body temperature) in data set [4] (setting [6]) and in data set [4] (setting [7]) was 0.33 mg/kg throughout.
